Measurements published in article PMC9405451, “Uptake and Immunomodulatory Properties of Betanin, Vulgaxanthin I and Indicaxanthin towards Caco-2 Intestinal Cells” (Antioxidants, 2022).

Key:
COX-2 [1] = test system: COX-2; set-up: method as in PMID 23931157; conditions: 25 μM; cited from earlier work
Caco-2 cells = assay: Intracellular ROS formation (DCFH2-DA) in H2O2-stressed Caco-2 cells; format: cell-based, human; conditions: at 80 μM, 200 μM H2O2
Method: The generation of reactive oxygen species (ROS) within Caco-2 cells was determined in 96-well plates with the probe 2′,7′-dichlorodihydrofluorescein diacetate (DCFH2-DA), which is intracellularly deacetylated and oxidised to highly fluorescent 2′,7′-dichlorofluorescein (DCF). DCFH2-DA (30 µM) dissolved in PBS with 1% FBS (v/v) was applied to the confluent Caco-2 cells and incubated for 40 min at 37 °C. After washing, cells were treated with BET, VUL and IND (5–80 μM) for 1 h and subsequently stressed with H2O2 (200 μM) for a further 1 h. The plate was scanned using Tecan Spark 10M^TM with excitation λ of 485 nm and emission λ of 535 nm. Subsequently, the protein content of each well was determined by SRB assay. Briefly, the medium was removed and the cells were washed with PBS and submerged with 50 μL of 0.004% SRB solution (w/v) in 10% trichloroacetic acid (w/v). Cells were incubated at room temperature for 15 min and washed with 1% acetic acid (200 μL, v/v). After treating with Tris base (10 mM, 100 μL), cells were incubated for 5 min under shaking conditions. Finally, the plate was scanned using a Tecan plate reader with excitation λ of 540 nm and emission λ of 590 nm. Results of the ROS assay were normalised to the relative protein content for each well and expressed as the relative fluorescence intensity % (RFI) with respect to the value of positive control.

NOX-1 [2] = assay: NOX-1 mRNA level (qPCR) in cytokine-stimulated Caco-2 cells; format: cell-based, human; conditions: 5–80 μM, 6 h cytokine stimulation, maximum effect
Method: (§1) Confluent Caco-2 cells were stimulated with a cocktail of cytokines comprised of tumour necrosis factor-α (TNF-α, 20 ng mL^−1), interleukin-1β (IL-1β, 40 ng mL^−1), interferon-γ (IFN-γ, 10 ng mL^−1) and lipopolysaccharide (LPS, 100 ng mL^−1) in the presence or absence of BET, VUL and IND treatments (5–80 µM) for 6 h. With the completion of incubations, cells were washed with cold DPBS and lysed with TRIsure reagent (Scientific Laboratory Supplies Ltd.). Total RNA of cell samples was extracted in accordance with the manufacturer’s instructions. After resuspending the RNA pellets in DEPC water, concentration and quality were determined using the NanoQuant plate (Tecan Spark 10M plate reader) at 260 and 280 nm. Reverse transcription of RNA was achieved using the iScript™ cDNA Synthesis Kit (Bio-Rad). Transcription levels of target genes—interleukin 6 (IL-6), IL-8, COX-2, iNOS, NADPH oxidase 1 (NOX-1), NAD(P)H quinone dehydrogenase 1 (NQO-1), heme oxygenase 1 (HO-1), glutamate-cysteine ligase catalytic subunit (GCLC), glutathione peroxidase 1 (GPX-1), glutathione S-transferase 1 (GSTA-1) and GSTP-1 were evaluated using SybrGreen based reagent (SensiFast SYBR Green, SLS Ltd., Galveston, TX, USA) via real-time qPCR using StepOne Plus Real-Time PCR System (Applied Biosystems, Nottingham, UK). […]

[3] = set-up: method as in PMID 15447903, PMID 24306215, PMID 28358315; conditions: in vivo; cited from earlier work
[4] = test system: differentiated Caco-2 cells; assay: Intracellular accumulation in differentiated Caco-2 cells; format: in vitro ADME, human; conditions: 250 μM, 2 h incubation in HBSS
Method: For accumulation experiments, differentiated Caco-2 cells were incubated with purified BET, VUL and IND (250 μM) for 2 h in HBSS. The cell layer was washed twice with DPBS prior to being scraped into methanol, and pigments were subsequently extracted for LC-MS analysis. The total protein content of lysed cells was determined by bicinchoninic acid (BCA) assay (Pierce™ Thermo Scientific) in accordance with the manufacturer’s instructions.
(§2) Betalain compounds from the cell culture samples were quantified and identified by an ultra-high-speed LC fitted with a UV-Vis detector (SPD-20A), followed by a single quadrupole MS with an electrospray ionisation source (ESI) (Shimazu, 2020). HPLC separation was performed by a reverse phase C18 column (100 mm × 2.1 mm I.D., 3.5 μm) at the temperature of 35 °C. […] Betacyanins and betaxanthins were detected at the wavelengths of 536 nm and 486 nm, respectively, and their molecular weights were monitored by ESI-MS with positive ion mode. Compounds were identified based on the m/z values and quantified using standard curves with purified betalains, as shown in Supplemental Figure S1.

GSTA-1 = GSTA-1 mRNA level (qPCR) in cytokine-stimulated Caco-2 cells; format: cell-based, human; conditions: 5–80 μM, 6 h cytokine stimulation, vs SC
Method: as §1

[5] = EPR spin-trapping superoxide radical scavenging assay; conditions: 20, 50 μM betalain
Method: (§3) Electron paramagnetic resonance (EPR) with spin trapping was used to determine superoxide and DPPH radical scavenging abilities of betalains reflected by the reduction of relative signal strength. EPR spectra were recorded 1 min after reagent mixing on a JEOL X320 spectrometer (X-band) in glass capillaries (0.8 mm ID). Superoxide assay was carried out by mixing the following solutions in 30% aqueous ethanol as solvent: hypoxanthine (1 mM, 55 μL), 5,5-dimethyl-1-pyrroline-N-oxide (DMPO) (1 M, 15 μL) and deferoxamine (10 mM, 10 μL). Individual betalains (200 and 500 μM) or solvent control were subsequently added in a volume of 10 μL. The reaction was initiated by the addition of 2 U mL^−1 xanthine oxidase (10 μL), achieving 20 and 50 μM as final concentrations of betalains in the mixture.
(§4) The 2,2-diphenyl-1-(2,4,6-trinitrophenyl)hydrazyl (DPPH) assay was conducted by mixing ethanol (40 μL) with 30% aqueous ethanol solutions of DPPH (100 μM, 50 μL) and purified betalains (200 μM, 10 μL), providing the working concentration of betalains as 20 μM. In both assays, acquisition of EPR spectra was started 1 min after reagent mixing. To improve the accuracy of measurements, the signal intensity for the superoxide assay was determined in triplicate by fitting the experimental spectra to the simulated superoxide-DMPO adduct spectra.

[6] = set-up: method as in PMID 18959410; conditions: cited from earlier work
IL-8 = IL-8 mRNA level (qPCR) in cytokine-stimulated Caco-2 cells; format: cell-based, human; conditions: 5–80 μM, 6 h cytokine stimulation, maximum effect
Method: (§5) Confluent Caco-2 cells were stimulated with a cocktail of cytokines comprised of tumour necrosis factor-α (TNF-α, 20 ng mL^−1), interleukin-1β (IL-1β, 40 ng mL^−1), interferon-γ (IFN-γ, 10 ng mL^−1) and lipopolysaccharide (LPS, 100 ng mL^−1) in the presence or absence of BET, VUL and IND treatments (5–80 µM) for 6 h. With the completion of incubations, cells were washed with cold DPBS and lysed with TRIsure reagent (Scientific Laboratory Supplies Ltd.). Total RNA of cell samples was extracted in accordance with the manufacturer’s instructions. After resuspending the RNA pellets in DEPC water, concentration and quality were determined using the NanoQuant plate (Tecan Spark 10M plate reader) at 260 and 280 nm. Reverse transcription of RNA was achieved using the iScript™ cDNA Synthesis Kit (Bio-Rad). Transcription levels of target genes—interleukin 6 (IL-6), IL-8, COX-2, iNOS, NADPH oxidase 1 (NOX-1), NAD(P)H quinone dehydrogenase 1 (NQO-1), heme oxygenase 1 (HO-1), glutamate-cysteine ligase catalytic subunit (GCLC), glutathione peroxidase 1 (GPX-1), glutathione S-transferase 1 (GSTA-1) and GSTP-1 were evaluated using SybrGreen based reagent (SensiFast SYBR Green, SLS Ltd., Galveston, TX, USA) via real-time qPCR using StepOne Plus Real-Time PCR System (Applied Biosystems, Nottingham, UK). Primers of target genes were designed and blasted using the NCBI database, whose PCR product sizes were confirmed by 2% agarose gel electrophoresis. The list of primer sequences used in the study is presented in Supplemental Table S1. The calculation of target gene levels was based upon the Livak (2^−ΔΔCT) method with normalisation to the housekeeping gene, β-actin [31].

[7] = EPR DPPH radical scavenging assay; conditions: 20 μM betalain
Method: as §3, §4

NOX-1 [8] = test system: NOX-1; set-up: method as in PMID 23931157; conditions: 25 μM; cited from earlier work
COX-2 [9] = assay: COX-2 mRNA level (qPCR) in cytokine-stimulated Caco-2 cells; format: cell-based, human; conditions: 5–80 μM, 6 h cytokine stimulation, maximum effect
Method: as §1

GPX-1 = GPX-1 mRNA level (qPCR) in cytokine-stimulated Caco-2 cells; format: cell-based, human; conditions: 5–80 μM, 6 h cytokine stimulation, vs SC
Method: as §1

iNOS [10] = assay: iNOS mRNA level (qPCR) in cytokine-stimulated Caco-2 cells; format: cell-based, human; conditions: 5–80 μM, 6 h cytokine stimulation, maximum effect
Method: as §1

[11] = test system: differentiated Caco-2 cells; assay: Trans-epithelial transport (AP-to-BL) across differentiated Caco-2 monolayer; format: in vitro ADME, human; conditions: AP-to-BL
Method: (§6) Trans-epithelial transport of purified betalains (AP-to-BL) was investigated in differentiated Caco-2 cells in 12-well plate transwell inserts (PET membrane, 0.4 μm pore size, Sarstedt) at an initial density of 1 × 10^5 cells cm^−2. Complete medium was added in both apical (AP) and basolateral (BL) chambers and was replaced every 2–3 days. Cell membrane integrity was monitored weekly through measurement of trans-epithelial electrical resistance (TEER) across the growth area until full differentiation of the cells after 21 days. During the experiment, Hanks’ balanced salt solution (HBSS) in the apical compartment was adjusted to pH 6.5 with MES (2 mM), while basolateral pH remained at 7.5 [25]. Purified BET, VUL and IND (420–1000 μM) were supplied to the apical side of the membrane and incubated at 37 °C for up to 2 h. As a marker compound of paracellular transport, phenolsulfonaphtalein (5 mM) was also applied to parallel cell membranes in the apical chamber. The study also evaluated the permeability of compounds through the Caco-2 membrane with a loosened tight junction in parallel wells which was achieved by 5-min incubation of differentiated membrane in trypsin EDTA (0.05%, v/v). The basolateral solution was collected and replaced every 30 min until 2 h, under initial rate conditions. The betalain-containing solutions were processed and submitted to LC-MS analysis, while phenolsulfonaphtalein was quantified spectrophotometrically at λ of 430 nm. TEER values were monitored at the beginning and the end of the experiment to check the impact of compounds on monolayer integrity. The apparent permeability coefficients (Papp) were calculated as per Equation (1), where V = volume of basolateral solution, A = cell growth area, C0 = initial concentration of apical betalain and dC/dt = steady-state flux across the monolayer. (1) Papp=1/C0×A·V×dC/dt
as §2

[12] = as above; format: in vitro ADME, human; conditions: human, Caco-2, 1 mM in AP chamber, apical pH 6.5, basolateral pH 7.5, read-out: Papp (apparent permeability coefficient), absorptive direction AP-to-BL
Method: as §6, §2

iNOS [13] = test system: iNOS; set-up: method as in PMID 23931157; conditions: 25 μM; cited from earlier work
iNOS [14] = test system: iNOS; set-up: method as in PMID 24306215; conditions: rat model of carrageenan-induced pleurisy; cited from earlier work
IL-6 = IL-6 mRNA level (qPCR) in cytokine-stimulated Caco-2 cells; format: cell-based, human; conditions: 5–80 μM, 6 h cytokine stimulation, maximum effect
Method: as §5

COX-2 [15] = test system: COX-2; set-up: method as in PMID 24306215; conditions: rat model of carrageenan-induced pleurisy; cited from earlier work
GCLC = GCLC mRNA level (qPCR) in cytokine-stimulated Caco-2 cells; format: cell-based, human; conditions: 5–80 μM, 6 h cytokine stimulation, vs SC
Method: as §1

## O=C(O)C1=C/C(=C/C=[N+]2/CCC[C@H]2C(=O)[O-])C[C@@H](C(=O)O)N1 [IND, indicaxanthin]
COX-2 [1]
  Suppression of COX-2 protein levels: 80%
Caco-2 cells
  Reduction of H2O2-stimulated ROS: 14%
NOX-1 [2]
  Attenuation of NOX-1 mRNA levels: up to 34%
[3]
  Plasma concentration of IND compared with BET: around 20 fold
  Urinary recovery of IND compared with BET: around 20 fold
[4]
  Intracellular accumulation: 0.03 nmol per mg of protein
GSTA-1
  Induction of GSTA-1 expression: < 50%
[5]
  Antiradical activity in superoxide assay (EPR): did not exhibit any evident antiradical activity
[6]
  Loss along the digestion: minor loss
IL-8
  Downregulation of IL-8 expression vs cytokine control (SC): ≤ 39%
[7]
  Antiradical activity in DPPH assay (EPR): did not exhibit any evident antiradical activity
NOX-1 [8]
  Suppression of NOX-1 protein levels: 89%
COX-2 [9]
  Attenuation of COX-2 mRNA levels: up to 34%
GPX-1
  Upregulation of GPX-1 expression: < 26%
iNOS [10]
  Reduction of iNOS mRNA levels: < 42%
[11]
  Proportion transported within 2 h of total amount applied: 2.2%
[12]
  Papp A→B at 2 h, 1 mM: 0.893 ×10⁻⁶ cm/s
iNOS [13]
  Suppression of iNOS protein levels: 90%
iNOS [14]
  Suppression of iNOS: 75%
IL-6
  Downregulation of IL-6 expression vs cytokine control (SC): up to 50%
COX-2 [15]
  Suppression of COX-2: 88%
GCLC
  Upregulation of GCLC expression: < 25%
